The values that follow come from patent publication US8063204B2, “Benzothiazole and benzoxazole linked pyrrolo[2,1-c] [1, 4] benzodiazepine hybrids as novel antitumour agents and process for the preparation thereof” (Council of Scientific & Industrial Research, priority 2007, dated 2011).

One experiment relates to Renal. As to the kind of experiment: NCI in vitro anticancer screen, SRB assay, renal panel. In kind it is cell-based, human. Conditions: average of six to nine cell lines, 48 h; for GI50: Homo sapiens, read-out: Log10 GI50 (converted). Here is the method:
(§1) Anticancer activity: In vitro biological activity studies were carried out at the National Cancer Institute (USA).
(§2) The compounds were evaluated for in vitro anticancer activity against sixty human tumour cells derived from nine cancer types (leukemia, non-small-cell lung, colon, CNS, melanoma, ovarian, prostate, and breast cancer) as shown in Table 3. For each compound, dose response curves for each cell line were measured at a minimum of five concentrations at 10 fold dilutions. A protocol of 48 h continuous drug exposure was used and a sulforhodamine B (SRB) protein assay was used to estimate cell viability or growth. The concentration causing 50% cell growth inhibition (GI50), total cell growth inhibition (TGI 0% growth) and 50% cell death (LC50, −50% growth) compared with the control was calculated.
(In general: The SRB assay estimates cell density from bound dye.)

Experiment [1] relates to sixty human tumour cells derived from nine cancer types. As to the kind of experiment: cells. The class given is cell-based. The settings on record: for Log10GI50 mean graph midpoint (MG_MID) / Log10LC50 mean graph midpoint (MG_MID) / Log10TGI mean graph midpoint (MG_MID): 48 h continuous drug exposure, SRB, mean over human tumour cell lines; for log10 GI50 anticancer activity, range over nine cancer cell types: range across nine cancer cell type. As for the experimental part: as §1, §2

A further experiment relates to Prostate. The experiment in a line: NCI in vitro anticancer screen, SRB assay, prostate panel. In kind it is cell-based, human. The settings on record: average of six to nine cell lines, 48 h; for GI50: Homo sapiens, read-out: Log10 GI50 (converted). Here is the method: as §1, §2
The test system of another experiment is Leukemia. As to the kind of experiment: NCI in vitro anticancer screen, SRB assay, leukemia panel. The class given is cell-based, human. The settings on record: average of six to nine cell lines, 48 h; for GI50: Homo sapiens, read-out: Log10 GI50 (converted). Here is the method: as §1, §2
Experiment [2] deals with duplex-form calf thymus DNA (CT-DNA). As to the kind of experiment: Thermal denaturation studies with calf thymus DNA (DNA binding affinity). Conditions: [PBD]:[DNA] molar ratio 1:5, CT-DNA 100 μM, ligand 20 μM, sodium phosphate buffer pH 7.00; for ΔTm after incubation at 37° C. for 0 h: 0 h incubation; for ΔTm after incubation at 37° C. for 18 h: 18 h incubation. Here is the method: Compounds have been subjected to thermal denaturation studies with duplex-form calf thymus DNA (CT-DNA) using an modification of a reported procedure (Newman, M. S. Carcinog-compr. Surv. 1976, 1, 203; (b) Hecht, S. S.; Loy, M.; Hoffman, Carcinog-compr. Surv. 1976, 1, 325). Working solutions in aqueous buffer (10 mM NaH2PO4/Na2HPO4, 1 mM Na2EDTA, pH 7.00+0.01) containing CT-DNA (100 μm in phosphate) and the PBD (20 μm) have been prepared by addition of concentrated PBD solutions in DMSO to obtain a fixed [PBD]/[DNA] molar ratio of 1:5. The DNA-PBD solutions have been incubated at 37° C. for 0 and 18 h prior to analysis. Samples have been monitored at 260 nm using a Beckman DU-800 spectrophotometer fitted with high performance temperature controller, and heated at 1° C. min^−1 in the 40-110° C. range. DNA helix→coil transition temperatures (Tm) have been obtained from the maxima in the d(A260)/dT derivative plots. Drug-induced alterations in DNA melting behavior are given by: ΔTm=Tm(DNA+PBD)−Tm(DNA alone), where the Tm value for the PBD-free CT-DNA is 69.1±0.01.
The DNA binding activity for these novel C8-linked benzothiazole, benzoxazole-PBD hybrids has been examined by thermal denaturation studies using calf thymus (CT) DNA. […] The data for the compounds 9a-h is included in Table 1 for comparison.

The subject of a further experiment is Melanoma. The experiment in a line: NCI in vitro anticancer screen, SRB assay, melanoma panel. In kind it is cell-based, human. The settings on record: average of six to nine cell lines, 48 h; for GI50: Homo sapiens, read-out: Log10 GI50 (converted). Here is the method: as §1, §2
The next experiment has as its system Colon. As to the kind of experiment: NCI in vitro anticancer screen, SRB assay, colon panel. In kind it is cell-based, human. The settings on record: average of six to nine cell lines, 48 h; for GI50: Homo sapiens, read-out: Log10 GI50 (converted). Here is the method: as §1, §2
The next experiment relates to CNS. As to the kind of experiment: NCI in vitro anticancer screen, SRB assay, CNS panel. Conditions: average of six to nine cell lines, 48 h; for GI50: Homo sapiens, read-out: Log10 GI50 (converted). In kind it is cell-based, human. Here is the method: as §1, §2
In a further experiment the test system is Breast. The experiment in a line: NCI in vitro anticancer screen, SRB assay, breast panel. The class given is cell-based, human. The settings on record: average of six to nine cell lines, 48 h; for GI50: Homo sapiens, read-out: Log10 GI50 (converted). Here is the method: as §1, §2
In another experiment the test system is Non-small-cell-lung. The experiment in a line: NCI in vitro anticancer screen, SRB assay, non-small-cell lung panel. The class given is cell-based, human. Conditions: average of six to nine cell lines, 48 h; for GI50: Homo sapiens, read-out: Log10 GI50 (converted). Here is the method:
as §1, §2

The subject of the next experiment is Ovarian. The experiment in a line: NCI in vitro anticancer screen, SRB assay, ovarian panel. The class given is cell-based, human. The settings on record: average of six to nine cell lines, 48 h; for GI50: Homo sapiens, read-out: Log10 GI50 (converted). As for the experimental part:
as §1, §2

The mark [3] stands for this setting: against nine human tumor cell lines.

Each structure is given as a SMILES string.

On to `COc1cc2c(cc1OCCCCCOc1ccc(-c3nc4ccccc4s3)cc1)N=C[C@@H]1CCCN1C2=O` [Compound 9c, 7-Methoxy-8-{5-[4-(1,3-benzothiazol-2-yl)phenoxy]pentyl}oxy-(11aS)-1,2,3,11a-tetrahydro-5H-pyrrolo[2,1-c][1,4]benzodiazepin-5-one], for which the 50% growth inhibitory concentration (GI50) (as a rule, the concentration giving 50% growth inhibition) with Renal was 0.794 µM; in the experiment with Prostate, 0.288 µM; in the experiment with Leukemia, 0.224 µM; with Melanoma, 0.692 µM; in the experiment with Colon, 0.676 µM; in the experiment with CNS, 1.12 µM. Further, the concentration for 50% growth inhibition (GI50) with Breast is 0.525 µM; with Non-small-cell-lung, 0.851 µM; in the experiment on Ovarian it was 1.35 µM. Also, the “Log10GI50 mean graph midpoint (MG_MID)” value in experiment [1] was −6.15. Besides, the “Log10LC50 mean graph midpoint (MG_MID)” value in [1] is listed as −4.35. For the same molecule, the “Log10TGI mean graph midpoint (MG_MID)” value in experiment [1] was −5.30. Also, the “log10 GI50 anticancer activity, range over nine cancer cell types” value in experiment [1] is recorded as −5.87 to −6.65 mole/lit. The “ΔTm after incubation at 37° C. for 0 h” value in experiment [2] came out at 4.1 °C. Also, the “ΔTm after incubation at 37° C. for 18 h” value in [2] was determined as 4.3 °C.

In the case of `COc1cc(-c2nc3ccccc3s2)ccc1OCCCCOc1cc2c(cc1OC)C(=O)N1CCC[C@H]1C=N2` [Compound 9b, 7-Methoxy-8-{4-[4-(1,3-benzothiazol-2-yl)-2-methoxyphenoxy]butyl}oxy-(11aS)-1,2,3,11a-tetrahydro-5H-pyrrolo[2,1-c][1,4]benzodiazepin-5-one], the 50% growth inhibitory concentration (GI50) with Renal was 0.851 µM; in the experiment on Prostate, 0.355 µM; in the experiment with Leukemia, 0.398 µM; in the experiment on Melanoma, 1.17 µM; in the experiment with Colon, 0.759 µM; with CNS, 1.02 µM. The GI50 was 0.646 µM in the experiment with Breast, 1.23 µM in the experiment with Non-small-cell-lung and 1.41 µM with Ovarian. For the same molecule, in experiment [1], the “Log10GI50 mean graph midpoint (MG_MID)” value is given as −6.07. The “Log10LC50 mean graph midpoint (MG_MID)” value in [1] is −4.67. Further, the “Log10TGI mean graph midpoint (MG_MID)” value in [1] is −5.47. Moreover, in [1], the “log10 GI50 anticancer activity, range over nine cancer cell types” value is −5.85 to −6.45 mole/lit. In addition, the “ΔTm after incubation at 37° C. for 0 h” value in experiment [2] amounted to 0.5 °C. The “ΔTm after incubation at 37° C. for 18 h” value in experiment [2] was determined as 0.5 °C.

With `COc1cc2c(cc1OCCCCOc1ccc(-c3nc4ccccc4s3)cc1)N=C[C@@H]1CCCN1C2=O` [Compound 9a, 7-Methoxy-8-{4-[4-(1,3-benzothiazol-2-yl)phenoxy]butyl}oxy-(11aS)-1,2,3,11a-tetrahydro-5H-pyrrolo[2,1-c][1,4]benzodiazepin-5-one], the “Log10 GI50” value in the experiment on Renal was −6.33 mol/L; in the experiment on Prostate it was −6.55 mol/L; with Leukemia it was −6.73 mol/L; in the experiment on Melanoma, −6.10 mol/L; with Colon it was −6.38 mol/L; in the experiment on CNS, −6.20 mol/L. In addition, the results for the “Log10 GI50” value with Breast, in the experiment with Non-small-cell-lung and in the experiment with Ovarian were −6.43 mol/L, −6.12 mol/L and −6.08 mol/L, respectively. Also, in experiment [1], the “Log10GI50 mean graph midpoint (MG_MID)” value is recorded as −6.30. Besides, the “Log10LC50 mean graph midpoint (MG_MID)” value in experiment [1] is −4.75. Besides, the “Log10TGI mean graph midpoint (MG_MID)” value in experiment [1] was −5.63. The LC50 (50% cell kill) in experiment [1] (Homo sapiens, read-out: log10 LC50 mean graph midpoint value (converted)) was 17.8 µM. The “log10 GI50 mean graph midpoint value” in experiment [1] (setting [3]) is −6.30 mol/lit. Also, in experiment [1] (setting [3]), the “log10 TGI mean graph midpoint value” is recorded as −5.63 mol/lit. Moreover, the “log10 GI50 anticancer activity, range over nine cancer cell types” value in experiment [1] is given as −6.08 to −6.73 mole/lit. Also, the “ΔTm after incubation at 37° C. for 0 h” value in [2] was determined as 0.5 °C. For the same molecule, the “ΔTm after incubation at 37° C. for 18 h” value in experiment [2] was found to be 0.5 °C.

In the case of `COc1cc(-c2nc3ccccc3s2)ccc1OCCCCCOc1cc2c(cc1OC)C(=O)N1CCC[C@H]1C=N2` [Compound 9d, 7-Methoxy-8-{5-[4-(1,3-benzothiazol-2-yl)-2-methoxyphenoxy]pentyl}oxy-(11aS)-1,2,3,11a-tetrahydro-5H-pyrrolo[2,1-c][1,4]benzodiazepin-5-one], the concentration for 50% growth inhibition (GI50) was 0.11 µM with Renal; 0.0339 µM in the experiment on Prostate; 0.0309 µM in the experiment with Leukemia; 0.0832 µM in the experiment with Melanoma; 0.0832 µM with Colon; 0.1 µM in the experiment with CNS. In addition, the GI50 with Breast is 0.0562 µM; in the experiment with Non-small-cell-lung, 0.0955 µM; in the experiment on Ovarian, 0.162 µM. Also, the “Log10GI50 mean graph midpoint (MG_MID)” value in experiment [1] is given as −7.09. The “Log10LC50 mean graph midpoint (MG_MID)” value in experiment [1] was −4.37. Also, in experiment [1], the “Log10TGI mean graph midpoint (MG_MID)” value was −5.78. The “log10 GI50 anticancer activity, range over nine cancer cell types” value in experiment [1] was −6.79 to −7.51 mole/lit. Besides, in experiment [2], the “ΔTm after incubation at 37° C. for 0 h” value was 6.2 °C. Further, the “ΔTm after incubation at 37° C. for 18 h” value in experiment [2] was found to be 6.3 °C.

Consider `COc1cc2c(cc1OCCCCCC(=O)Nc1ccc(-c3nc4ccc(F)cc4s3)cc1)N=C[C@@H]1CCCN1C2=O` [Compound 9h, 7-Methoxy-8-{5-[N^1-(4-(6-fluoro-1,3-benzothiazol-2-yl)phenyl)]pentanecarboxamide}oxy-(11aS)-1,2,3,11a-tetra-hydro-5H-pyrrolo[2,1-c][1,4]benzodiazepin-5-one], for which, in [2], the “ΔTm after incubation at 37° C. for 0 h” value turned out to be 4.2 °C and the “ΔTm after incubation at 37° C. for 18 h” value was 2.3 °C.

Take `COc1cc2c(cc1OCCCCCC(=O)Nc1ccc(-c3nc4ccccc4s3)cc1)N=C[C@@H]1CCCN1C2=O` [Compound 9g, 7-Methoxy-8-{5-[N^1-(4-(1,3-benzothiazol-2-yl)phenyl)]pentanecarboxamide}oxy-(11aS)-1,2,3,11a-tetra-hydro-5H-pyrrolo[2,1-c][1,4]benzodiazepin-5-one]: in [2], the “ΔTm after incubation at 37° C. for 0 h” value was 4.1 °C and the “ΔTm after incubation at 37° C. for 18 h” value is 4.3 °C.

Regarding `COc1cc2c(cc1O)N=CC1CCCN1C2=O` (stereo not shown) [DC-81, reference compound], in experiment [2], the “ΔTm after incubation at 37° C. for 0 h” value was 0.3 °C and the “ΔTm after incubation at 37° C. for 18 h” value was found to be 0.7 °C.

For the molecule `COc1cc(-c2nc3ccccc3o2)ccc1OCCCCCOc1cc2c(cc1OC)C(=O)N1CCC[C@H]1C=N2` [Compound 9f, 7-Methoxy-8-{5-[4-(1,3-benzoxazol-2-yl)-2-methoxyphenoxy]pentyl}oxy-(11aS) 1,2,3,11a-tetra-hydro-5H-pyrrolo[2,1-c][1,4]benzodiazepin-5-one], in experiment [2], the “ΔTm after incubation at 37° C. for 0 h” value was 2.1 °C and the “ΔTm after incubation at 37° C. for 18 h” value amounted to 4.2 °C.

Consider `COc1cc2c(cc1OCCCCCOc1ccc(-c3nc4ccccc4o3)cc1)N=C[C@@H]1CCCN1C2=O` [Compound 9e, 7-Methoxy-8-{5-[4-(1,3-benzoxazol-2-yl)phenoxy]pentyl}oxy-(11aS) 1,2,3,11a-tetra-hydro-5H-pyrrolo[2,1-c][1,4]benzodiazepin-5-one], for which, in experiment [2], the “ΔTm after incubation at 37° C. for 0 h” value is 0.5 °C and the “ΔTm after incubation at 37° C. for 18 h” value is 0.5 °C.
